Experimental data: ChEMBL document CHEMBL4610068, “Diterpenoids from the Root Bark of Pinus massoniana and Evaluation of Their Phosphodiesterase Type 4D Inhibitory Activity” (J Nat Prod, 2020)

Biological target: 3',5'-cyclic-AMP phosphodiesterase 4D (Homo sapiens, UniProt Q08499)
Experiment: Inhibition of human PDE4D catalytic domain (86 to 413 residues) expressed in Escherichia coli BL21 (DE3) cells using [3H]cAMP as substrate measured after 30 mins by scintillation proximity assay

Sequence of 3',5'-cyclic-AMP phosphodiesterase 4D (Q08499 whole entry, the tested form may be a part): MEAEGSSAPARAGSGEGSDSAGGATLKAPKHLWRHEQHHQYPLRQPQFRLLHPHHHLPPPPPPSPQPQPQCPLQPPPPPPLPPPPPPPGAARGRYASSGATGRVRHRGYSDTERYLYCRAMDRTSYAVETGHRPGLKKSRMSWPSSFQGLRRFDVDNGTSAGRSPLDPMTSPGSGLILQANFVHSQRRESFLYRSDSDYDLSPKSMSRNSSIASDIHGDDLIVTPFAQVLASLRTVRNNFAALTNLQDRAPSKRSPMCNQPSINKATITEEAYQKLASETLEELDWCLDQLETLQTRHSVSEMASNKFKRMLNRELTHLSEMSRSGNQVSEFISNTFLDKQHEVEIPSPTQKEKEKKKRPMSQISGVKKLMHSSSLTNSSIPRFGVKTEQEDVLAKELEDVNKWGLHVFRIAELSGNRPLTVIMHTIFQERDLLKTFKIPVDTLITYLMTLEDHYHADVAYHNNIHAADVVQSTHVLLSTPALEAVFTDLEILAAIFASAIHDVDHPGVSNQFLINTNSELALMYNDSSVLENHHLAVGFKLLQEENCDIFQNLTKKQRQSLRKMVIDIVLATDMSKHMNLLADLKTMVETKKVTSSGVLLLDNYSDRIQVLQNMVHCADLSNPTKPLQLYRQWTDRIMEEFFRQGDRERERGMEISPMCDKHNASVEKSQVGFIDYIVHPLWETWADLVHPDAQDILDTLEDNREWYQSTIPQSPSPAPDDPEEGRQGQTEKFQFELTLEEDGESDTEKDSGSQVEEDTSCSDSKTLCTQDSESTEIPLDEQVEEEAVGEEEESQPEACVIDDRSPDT

CC(C)C1=CC[C@H]2C(=CC[C@@H]3[C@]2(C)CCC[C@@]3(C)C(=O)O)C1=O
IC50: 2.8 µM

C=C(C)c1ccc2c(c1)CC[C@H]1[C@](C)(C(=O)O)CCC[C@]21C
IC50: 3.3 µM
